As usually defined, the IC50 is the midpoint of a concentration-inhibition curve.

Assay [1] relates to HXB2 virus. Put plainly: microbe, parasite or virus in culture. In kind it is cell-based, HIV. The following applies: Human immunodeficiency virus 1, HXB2, HeLaP4-2, read-out: antiviral IC50 (SCIA-B). On the procedure:
An assay for measuring the inhibition of acute HIV infection with HeLa P4-2 cells in a single cycle infectivity assay (SCIA-A) was conducted in accordance with Joyce, J. G., et al., J. Biol. Chem., 2002, 277, 45811, Hazuda, D. J. et al., Science, 2000, 287, 646, and Kimpton, J. et al, J. Virol. 1992, 66, 2232. Infectious virus was produced by transfecting 293T cells with HIV proviral DNA in which the integrase gene was derived from a IIIB isolate and the remainder of the HIV genome was derived from the NL4-3 isolate.
This assay B for measuring the inhibition of acute HIV infection with HeLa P4-2 cells in a single cycle infectivity assay (SCIA-B) is essentially the same as Assay A described above, except that HXB2 virus is employed instead of the IIIb isolate.

Assay [2] addresses HIV integrase (Human immunodeficiency virus type 1 group M subtype B, UniProt P04585). As to the kind of experiment: integrase strand transfer assay (STA). The settings on record: integrase strand transfer; read-out: IC50 in the STA assay. In kind it is biochemical.

Regarding `CC(=O)c1cccc(-c2cccc(-c3cc(=O)n(O)c4ncccc34)c2)c1` [Example 191, 4-(3′-acetylbiphenyl-3-yl)-1-hydroxy-1,8-naphthyridin-2(1H)-one], the 50% inhibitory concentration (IC50) was < 100 µM in assay [1] and < 50 µM in assay [2].
The matching figures for `O=c1c(-c2ccc(Cl)cc2)c(O)c2cccnc2n1O` [Example 37, 3-(4-Chlorophenyl)-1,4-dihydroxy-1,8-naphthyridin-2(1H)-one]: < 100 µM and < 50 µM.
The corresponding values for `O=c1cc(N2CCCC(CN3CCOCC3)C2)c2cccnc2n1O` (centres unmarked) [Example 144, 1-hydroxy-4-[3-(4-morpholinylmethyl)-1-piperidinyl]-1,8-naphthyridin-2(1H-one)] are < 100 µM and < 50 µM.
The matching figures for `O=c1c2ccc(-c3ccccc3)cc2c2cccnc2n1O` [Example 267, 5-Hydroxy-9-phenylbenzo[c]-1,8-naphthyridin-6(5.H)-one]: < 100 µM and < 50 µM.
`O=c1cc(Nc2ccccc2-c2ccccc2)c2cccnc2n1O` [Example 104, 4-(Biphenyl-2-ylamino)-1-hydroxy-1,8-naphthyridin-2(1H)-one]: the IC50 in assay [1] is < 100 µM; in assay [2], < 50 µM.
With `O=c1cc(NC(CN2CCOCC2)c2ccccc2)c2cccnc2n1O` (centres unmarked) [Example 107, 1-Hydroxy-4-[(2-morpholin-4-yl-1-phenylethyl)amino]-1,8-naphthyridin-2(1H)-one], the IC50 was < 100 µM in assay [1] and < 50 µM in assay [2].
The corresponding values for `O=c1cc(-c2ccn[nH]2)c2cccnc2n1O` [Example 198, 1-hydroxy-4-(1H-pyrazol-5-yl)-1,8-naphthyridin-2(1H)-one] are < 100 µM and < 50 µM.
As for `Cc1cc(C)n(-c2cccc(-c3ccnc4c3c(O)cc(=O)n4O)c2)n1` [Example 229, 5-[3-(3,5-dimethyl-1H-pyrazol-1-yl)phenyl]-1,4-dihydroxy-1,8-naphthyridin-2(1H)-one], the IC50 is < 100 µM in assay [1] and < 50 µM in assay [2].
The corresponding values for `O=C(CN1CCN(Cc2cccc(-c3cc(=O)n(O)c4ncccc34)c2)CC1)N1CCCC1` [Example 208, 1-hydroxy-4-[3-({4-[2-oxo-2-(1-pyrrolidinyl)ethyl]-1-piperazinyl}methyl)phenyl]-1,8-naphthyridin-2(1H-one)] are < 100 µM and < 50 µM.
The corresponding values for `Nc1cccc(-c2ccc3c(c2)CN(c2cc(=O)n(O)c4ncccc24)CC3)c1` [Example 251, 4-[7-(3-aminophenyl)-3,4-dihydroisoquinolin-2(1H)-yl]-1-hydroxy-1,8-naphthyridin-2(1H)-one] are < 100 µM and < 50 µM.
The matching figures for `N#Cc1ccc2c(c1)CN(c1cc(=O)n(O)c3ncccc13)CC2` [Example 120, 2-(1-hydroxy-2-oxo-1,2-dihydro-1,8-naphthyridin-4-yl)-1,2,3,4-tetrahydroisoquinoline-7-carbonitrile]: < 100 µM and < 50 µM.
As for `CCOC(=O)c1c(-c2cccc(-c3ccc(CN)cc3)c2)c2cc(-c3ccccc3OC)cnc2n(O)c1=O` [Example 248, ethyl 4-[4′-(aminomethyl)biphenyl-3-yl]-1-hydroxy-6-(2-methoxyphenyl)-2-oxo-1,2-dihydro-1,8-naphthyridine-3-carboxylate], the IC50 is < 100 µM in assay [1] and < 50 µM in assay [2].
On to `O=c1cc(NCc2ccc(F)cc2)c2cccnc2n1O` [Example 152], for which the IC50 in assay [1] was < 100 µM; in assay [2], < 50 µM.
The matching figures for `O=c1cc(N2CCc3ccccc3C2)c2cccnc2n1O` [Example 119, 4-(3,4-dihydroisoquinolin-2(1H)-yl)-1-hydroxy-1,8-naphthyridin-2(1H)-one]: < 100 µM and < 50 µM.
For the compound `CN(C)C(=O)CNCc1cccc(-c2cc(=O)n(O)c3ncccc23)c1` [Example 209, 2-{[3-(1-hydroxy-2-oxo-1,2-dihydro-1,8-naphthyridin-4-yl)benzyl]amino}-N,N-dimethylacetamide], the IC50 in assay [1] was < 100 µM; in assay [2], < 50 µM.
The corresponding values for `COc1ccccc1-c1c(O)c2cccnc2n(O)c1=O` [Example 39, 1,4-Dihydroxy-3-(2-methoxyphenyl)-1,8-naphthyridin-2(1H)-one] are < 100 µM and < 50 µM.
The corresponding values for `CNS(=O)(=O)c1cccc(-c2cc(=O)n(O)c3ncccc23)c1` [Example 193, 3-(1-hydroxy-2-oxo-1,2-dihydro-1,8-naphthyridin-4-yl)-N-methylbenzenesulfona-mide] are < 100 µM and < 50 µM.
The matching figures for `CCOC(=O)c1c(N2CCc3ccc(-c4ccc(F)cc4)cc3C2)c2cccnc2n(O)c1=O` [Example 258, ethyl 4-[7-(4-fluorophenyl)-3,4-dihydroisoquinolin-2(1H)-yl]-1-hydroxy-2-oxo-1,2-dihydro-1,8-naphthyridine-3-carboxylate]: < 100 µM and > 50 µM.
Turning to `O=c1cc(-c2cnc3[nH]ccc3c2)c2cccnc2n1O` [Example 245, 1-hydroxy-4-(1H-pyrrolo[2,3-b]pyridin-5-yl)-1,8-naphthyridin-2(1H)-one bistrifluoroacetate], the results for the half-inhibitory concentration (IC50) in assay [1] and in assay [2] were < 100 µM and < 50 µM, respectively.
The corresponding values for `O=c1cc(-c2cncnc2)c2cccnc2n1O` [Example 197, 1-hydroxy-4-pyrimidin-5-yl-1,8-naphthyridin-2(1H)-one] are < 100 µM and < 50 µM.
For `CC(=O)c1cnc2c(c1)c(O)c(-c1ccccc1)c(=O)n2O` [Example 71, 6-acetyl-1,4-dihydroxy-3-phenyl-1,8-naphthyridin-2(1H)-one], the results for the half-inhibitory concentration (IC50) in assay [1] and in assay [2] were < 100 µM and < 50 µM, respectively.
The matching figures for `CCOC(=O)c1c(O)c2cc(C(=O)N3CCC(Cc4ccccc4)C3)cnc2n(O)c1=O` (centres unmarked) [Example 85, Ethyl 6-[(3-benzylpyrrolidin-1-yl)carbonyl]-1,4-dihydroxy-2-oxo-1,2-dihydro-1,8-naphthyridine-3-carboxylate]: < 100 µM and < 50 µM.
The matching figures for `CN1C(=O)c2c(c3cccnc3n(O)c2=O)NC1c1ccccc1-c1ccccc1` (centres unmarked) [Example 217, 2-Biphenyl-2-yl-6-hydroxy-3-methyl-2,3-dihydropyrimido[5,4-c]-1,8-naphthyridine-4,5(1H, 6H)dione]: < 100 µM and < 50 µM.
Regarding `O=C(NCc1ccccc1)c1cnc2c(c1)c(O)c(C(=O)NCc1ccccc1)c(=O)n2O` [Example 87, N,N′-Dibenzyl-1,4-dihydroxy-2-oxo-1,2-dihydro-1,8-naphthyridine-3,6-dicarboxamide], the IC50 was < 100 µM in assay [1] and < 50 µM in assay [2].
The corresponding values for `O=C(Nc1ccccc1)c1c(O)c2cccnc2n(O)c1=O` [Example 20, 1,4-Dihydroxy-2-oxo-N-phenyl-1,2-dihydro-1,8-naphthyridine-3-carboxamide] are < 100 µM and < 50 µM.
The matching figures for `CCOC(=O)c1c(O)c2cc(-c3ccccc3OC)cnc2n(O)c1=O` [Example 61, Ethyl 1,4-dihydroxy-6-(2-methoxyphenyl)-2-oxo-1,2-dihydro-1,8-naphthyridine-3-carboxylate]: < 100 µM and < 50 µM.
The corresponding values for `CN(C)C(=O)c1cccc(-c2cc(=O)n(O)c3ncccc23)c1` [Example 181, 3-(1-hydroxy-2-oxo-1,2-dihydro-1,8-naphthyridin-4-yl)-N,N-dimethylbenzamide] are < 100 µM and < 50 µM.
Turning to `O=c1c(-c2ccc(F)cc2)c(O)c2cccnc2n1O` [Example 34, 3-(4-Fluorophenyl)-1,4-dihydroxy-1,8-naphthyridin-2(1H)-one], the IC50 in assay [1] was < 100 µM; in assay [2] it was < 50 µM.
The corresponding values for `CCOC(=O)N1CCC(Nc2cc(=O)n(O)c3ncccc23)CC1` [Example 109, Ethyl 4-[(1-hydroxy-2-oxo-1,2-dihydro-1,8-naphthyridin-4-yl)amino]piperidine-1-carboxylate] are < 100 µM and < 50 µM.
The corresponding values for `CC(C1CCN(c2cc(=O)n(O)c3ncccc23)CC1)N1CCOCC1` (centres unmarked) [Example 156, 1-hydroxy-4-{4-[1-(4-morpholinyl)ethyl]-1-piperidinyl}-1,8-naphthyridin-2(1H-one)] are < 100 µM and < 50 µM.
The matching figures for `CCOC(=O)c1c(O)c2cc(C(C)=O)cnc2n(O)c1=O` [Example 70, ethyl 6-acetyl-1,4-dihydroxy-2-oxo-1,2-dihydro-1,8-naphthyridine-3-carboxylate]: < 100 µM and < 50 µM.
Consider `CC(c1ccc(-c2cccc(-c3cc(=O)n(O)c4ncccc34)c2)cc1)N1CCOCC1` (centres unmarked) [Example 178, 1-hydroxy-4-[4′-(1-morpholin-4-ylethyl)biphenyl-3-yl]-1,8-naphthyridin-2(1H)-one], for which the IC50 was < 100 µM in assay [1] and < 50 µM in assay [2].
The corresponding values for `Nc1ccc(Cc2ccc(-c3cc(=O)n(O)c4ncccc34)cc2)cc1` [Example 239, 4-[4-(4-aminobenzyl)phenyl]-1-hydroxy-1,8-naphthyridin-2(1H)-one] are < 100 µM and < 50 µM.
Take `NCc1cccc(-c2cccc(-c3ccnc4c3c(O)cc(=O)n4O)c2)c1` [Example 227, 5-[3′-(aminomethyl)biphenyl-3-yl]-1,4-dihydroxy-1,8-naphthyridin-2-(1H)-one]: the IC50 in assay [1] is < 100 µM; in assay [2], < 50 µM.

For the origin of these results see patent US20100056516A1 (priority 2006, published 2010).
